Read-outs that look alike come from different tables or passages of the source.
Key:
human 5-HT1A receptors = target: T1, human 5-HT1A receptors (Homo sapiens, UniProt P08908); experiment: [3H] 8-OH-DPAT displacement from 5-HT1A receptor (CHO cells stably transfected); type: binding; settings: for inhibition at 1 µM: read-out: 5-HT1A % inhibition at 1 μM, cells marked * in the 5-HT1A column
T1 construct: expressed in transfected cells
T1 sequence (P08908 1-422): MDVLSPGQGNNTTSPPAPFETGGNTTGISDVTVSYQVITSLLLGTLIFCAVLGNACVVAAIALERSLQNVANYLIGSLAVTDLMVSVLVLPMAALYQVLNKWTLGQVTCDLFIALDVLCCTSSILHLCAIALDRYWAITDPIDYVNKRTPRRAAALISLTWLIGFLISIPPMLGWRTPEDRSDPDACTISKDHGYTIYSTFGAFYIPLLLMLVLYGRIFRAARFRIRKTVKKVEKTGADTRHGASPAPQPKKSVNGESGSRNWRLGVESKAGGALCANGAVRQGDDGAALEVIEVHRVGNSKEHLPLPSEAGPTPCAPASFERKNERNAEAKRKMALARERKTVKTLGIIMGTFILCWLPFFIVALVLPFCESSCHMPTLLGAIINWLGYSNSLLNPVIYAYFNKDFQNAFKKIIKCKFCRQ

5-HT transporter = target: T2, 5-HT transporter (Rattus norvegicus, UniProt P31652); experiment: Rat Brain 3H-Paroxetine Binding Assay (RB 5HT Transporter)
T2 construct: frontal cortical membranes prepared from male S.D. rats; from tissue; host or cells: frontal cortical membranes of male Sprague-Dawley rats
Experimental: Rat Brain ^3H-Paroxetine Binding Assay (RB 5HT Transporter)
This assay was used to determine a compound's affinity of the 5-HT transporter. […] Briefly, frontal cortical membranes prepared from male S.D. rats were incubated with ^3H-parxetine (0.1 nM) for 60 min. at 25° C. All tubes also contained either vehicle, test compound (one to eight concentrations), or a saturating concentration of fluoxetine (10 μM) to define […]. All reactions are terminated by the addition of ice cold Tris buffer followed by rapid filtration using a Tom Tech filtration device to separate bound from free ^3H-paroxetine.

Human 5-HT Transporter = Human 5-HT Transporter (Homo sapiens, UniProt P31645); experiment: cell-based
Experimental: On the day of assay, vehicle, excess of fluoxetine, or test compound is added to various wells on the plate. All wells then receive ^3H-5-HT and are incubated at 37° C. for 5 min. The wells are then washed with ice cold 50 mM Tris HCl (pH 7.4) buffer and aspirated to remove free ^3H-5-HT. 25 μl of 0.25 M NaOH is then added to each well to lyse the cells and 75 μl scintillation cocktail (Microscint™ 20) added prior to quantitation on a Packard TopCount machine. Tubes with vehicle represent total possible uptake, radioactivity counted in tubes with fluoxetine represent nonspecific binding/uptake and is subtracted from the total possible uptake to give total possible specific uptake. […] Specific uptake is then expressed as a % of control values and is analyzed using nonlinear regression analysis (Prizm) to determine IC50 values.

[1] = rat frontal cortical membranes, 3H-paroxetine 0.1 nM, read-out: RB-5HT Transporter Ki

Chain of Human 5-HT Transporter (P31645 whole entry): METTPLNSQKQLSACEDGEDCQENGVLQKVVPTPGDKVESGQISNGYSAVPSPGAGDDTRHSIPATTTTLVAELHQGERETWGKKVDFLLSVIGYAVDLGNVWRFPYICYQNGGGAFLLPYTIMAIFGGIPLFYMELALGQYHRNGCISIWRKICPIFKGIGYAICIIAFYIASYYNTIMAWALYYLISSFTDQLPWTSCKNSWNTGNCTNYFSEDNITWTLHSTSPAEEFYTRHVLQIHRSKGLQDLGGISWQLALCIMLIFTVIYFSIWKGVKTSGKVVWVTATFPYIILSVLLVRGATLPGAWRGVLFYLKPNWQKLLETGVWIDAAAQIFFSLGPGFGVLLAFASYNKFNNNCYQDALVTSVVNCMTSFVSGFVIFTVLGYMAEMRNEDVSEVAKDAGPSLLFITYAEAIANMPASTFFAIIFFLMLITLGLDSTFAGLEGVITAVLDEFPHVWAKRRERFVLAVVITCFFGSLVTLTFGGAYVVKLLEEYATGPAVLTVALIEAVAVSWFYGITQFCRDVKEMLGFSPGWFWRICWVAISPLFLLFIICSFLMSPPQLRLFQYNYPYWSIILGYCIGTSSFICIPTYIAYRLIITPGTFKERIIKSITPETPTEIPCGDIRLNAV
T2 sequence (P31652 whole entry): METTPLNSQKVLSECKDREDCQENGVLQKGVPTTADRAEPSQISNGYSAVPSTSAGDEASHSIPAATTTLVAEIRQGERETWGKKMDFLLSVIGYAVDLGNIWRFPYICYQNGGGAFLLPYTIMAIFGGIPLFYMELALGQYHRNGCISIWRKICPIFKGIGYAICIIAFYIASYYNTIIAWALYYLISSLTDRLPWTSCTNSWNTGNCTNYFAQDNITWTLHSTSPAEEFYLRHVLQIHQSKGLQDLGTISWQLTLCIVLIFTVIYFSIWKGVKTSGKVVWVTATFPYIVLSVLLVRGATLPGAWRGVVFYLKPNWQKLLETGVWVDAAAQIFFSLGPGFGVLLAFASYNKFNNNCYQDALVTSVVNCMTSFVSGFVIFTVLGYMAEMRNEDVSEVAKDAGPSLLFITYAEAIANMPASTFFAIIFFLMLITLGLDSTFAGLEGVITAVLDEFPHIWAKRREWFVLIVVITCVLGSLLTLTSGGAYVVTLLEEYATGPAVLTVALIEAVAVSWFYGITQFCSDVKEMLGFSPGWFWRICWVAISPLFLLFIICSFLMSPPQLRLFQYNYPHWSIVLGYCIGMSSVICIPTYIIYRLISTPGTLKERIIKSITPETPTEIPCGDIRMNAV

SMILES | Ki (human 5-HT1A receptors) | Ki (5-HT transporter) | melting point | Ki (Human 5-HT Transporter) | Ki (human 5-HT1A receptors; [3H] 8-OH-DPAT displacement, CHO cells with human 5-HT1A, read-out: 5-HT1A Ki) | Ki (5-HT transporter; [1]) | inhibition at 1 µM (human 5-HT1A receptors)
Cn1cc(C2=CCN(CCc3coc4ccccc34)CC2)c2ccccc21 [Compound 2, 3-{1-[2-(1-benzofuran-3-yl)ethyl]-1,2,3,6-tetrahydro-4-pyridinyl}-1-methyl-1H-indole] | 18.3 nM | 6 nM | – | – | – | – | –
COc1ccc2c(CCN3CC=C(c4c[nH]c5cc(C#N)ccc45)CC3)coc2c1 [Compound 13, 3-{1-[2-(6-methoxy-1-benzofuran-3-yl)ethyl]-1,2,3,6-tetrahydro-4-pyridinyl}-6-cyano-1H-indole] | 12.7 nM | 3.36 nM | 181 °C | 34.1 nM | – | – | –
C1=C(c2c[nH]c3ccccc23)CCN(CCc2csc3ccccc23)C1 [Compound 28, 3-{1-[2-(1-benzothiophene-3-yl)ethyl]-1,2,3,6-tetrahydro-4-pyridinyl}-1H-indole] | 67.9 nM | 6.25 nM | 195 to 198 °C | 11.1 nM | – | – | –
C=CCn1cc(C2=CCN(CCc3csc4ccccc34)CC2)c2ccccc21 [Compound 29, 3-{1-[2-(1-benzothiophene-3-yl)ethyl]-1,2,3,6-tetrahydro-4-pyridinyl}-1-(2-propenyl)-1H-indole] | – | – | – | 1120 nM | 243 nM | 104 nM | –
Cn1cc(C2=CCN(CCc3csc4ccccc34)CC2)c2ccccc21 [Compound 30, 3-{1-[2-(1-benzothiophene-3-yl)ethyl]-1,2,3,6-tetrahydro-4-pyridinyl}-1-methyl-1H-indole] | 53.1 nM | 13 nM | – | 421 nM | – | – | –
Clc1ccc2scc(CCN3CC=C(c4c[nH]c5ccccc45)CC3)c2c1 [Compound 31, 3-{1-[2-(5-chloro-1-benzothiophene-3-yl)ethyl]-1,2,3,6-tetrahydro-4-pyridinyl}-1H-indole] | – | – | – | 2900 nM | – | 172 nM | 29%
C=CCn1cc(C2=CCN(CCc3csc4ccc(Cl)cc34)CC2)c2ccccc21 [Compound 32, 3-{1-[2-(5-chloro-1-benzothiophene-3-yl)ethyl]-1,2,3,6-tetrahydro-4-pyridinyl}-1-(2-propenyl)-1H-indole] | – | – | – | – | – | 132 nM | 34%
Cn1cc(C2=CCN(CCc3csc4ccc(Cl)cc34)CC2)c2ccccc21 [Compound 33, 3-{1-[2-(5-chloro-1-benzothiophene-3-yl)ethyl]-1,2,3,6-tetrahydro-4-pyridinyl}-1-methyl-1H-indole] | – | 39 nM | – | – | – | – | 45%
c1ccc2c(c1)ccc1c(CCN3CCC(c4c[nH]c5ccccc45)CC3)coc12 [Compound 34, 3-{1-(2-Naphtho[1,2-b]furan-3-yl-ethyl)-piperidin-4-yl]-1H-indole] | – | – | – | 276 nM | – | 62 nM | 48%
CC(CN1CC=C(c2c[nH]c3ccccc23)CC1)c1coc2ccccc12 (centres unmarked) [Compound 35, 3-{1-[2-(1-benzofuran-3-yl)propyl]-1,2,3,6-tetrahydro-4-pyridinyl}-1H-indole] | – | 16 nM | – | 130 nM | – | – | 28%
CC(CN1CC=C(c2c[nH]c3cc(F)ccc23)CC1)c1coc2ccccc12 (centres unmarked) [Compound 36, 3-{1-[2-(1-benzofuran-3-yl)propyl]-1,2,3,6-tetrahydro-4-pyridinyl}-6-fluoro-1H-indole] | – | 4.43 nM | – | 42 nM | – | – | 11%
CC(CN1CC=C(c2c[nH]c3ccc(F)cc23)CC1)c1coc2ccccc12 (centres unmarked) [Compound 37, 3-{1-[2-(1-benzofuran-3-yl)propyl]-1,2,3,6-tetrahydro-4-pyridinyl}-5-fluoro-1H-indole] | – | 21 nM | – | 152 nM | – | – | 20%
COc1cccc2c(CC(C)N3CC=C(c4c[nH]c5ccccc45)CC3)coc12 (centres unmarked) [Compound 41, 3-{1-[2-(7-methoxy-1-benzofuran-3-yl)-1-methylethyl]-1,2,3,6-tetrahydro-4-pyridinyl}-1H-indole] | 11.5 nM | 8.93 nM | – | 68.8 nM | – | – | –
COc1cccc2c(CC(C)N3CC=C(c4c[nH]c5cc(F)ccc45)CC3)coc12 (centres unmarked) [Compound 42, 3-{1-[2-(7-methoxy-1-benzofuran-3-yl)-1-methylethyl]-1,2,3,6-tetrahydro-4-pyridinyl}-6-fluoro-1H-indole] | 69.4 nM | 3.74 nM | – | 48.7 nM | – | – | –
COc1ccc2occ(CC(C)N3CC=C(c4c[nH]c5ccccc45)CC3)c2c1 (centres unmarked) [Compound 43, 3-{1-[2-(5-methoxy-1-benzofuran-3-yl)-1-methylethyl]-1,2,3,6-tetrahydro-4-pyridinyl}-1H-indole] | – | 12 nM | – | 144 nM | – | – | 34%
Clc1ccc2occ(CCN3CC=C(c4cnc5ccccn45)CC3)c2c1 [Compound 44, 3-{1-[2-(5-chloro-1-benzofuran-3-yl)ethyl]-1,2,3,6-tetrahydropyridin-4-yl}imidazo[1,2-a]pyridine] | – | 97 nM | – | 63.8 nM | – | – | 44%

Reference: patent publication US7235569B2, “Piperidinyl indole and tetrohydropyridinyl indole derivatives and method of their use” (Wyeth, priority 2003, dated 2007)
